According to ChEMBL document CHEMBL5385846, “Discovery and development of palmatine analogues as anti-NASH agents by activating farnesoid X receptor (FXR)” (Eur J Med Chem, 2023):
Active and inactive are the calls of the source.

Experiments:
[1] = Metabolic stability in Sprague-Dawley rat liver microsomes assessed as intrinsic clearance at 1 micromol/L measured upto 60 mins in presence of NADPH by LC-MS/MS analysis; type: ADME, Microsome; details: 1 h, 1 µM, dose 1 µmol/L
LX-2 [2] = test: Antifibrotic activity in TGF-beta1 induced human LX2 cells assessed as downregulation of alpha-SMA mRNA expression incubated for 24 hrs by qRT-PCR analysis; type: functional, cell-based
Mus musculus [3] = test: Hepatoprotective activity in CDAHFD induced C57BL/6N mouse liver injury model assessed as increase in glutathione peroxidase level at 200 mg/kg,po qd administration for 4 weeks; type: functional, organism-based
LX-2 [4] = test: Antifibrotic activity in TGF-beta1 induced human LX2 cells assessed as downregulation of COL1A1 mRNA expression incubated for 24 hrs by qRT-PCR analysis; type: functional, cell-based
Mus musculus [5] = test: Anti-inflammatory activity in CDAHFD induced C57BL/6N mouse liver injury model assessed as downregulation of IL-6 protein expression in liver at 200 mg/kg,po qd administration for 4 weeks by Western blotting analysis; type: functional, organism-based
Mus musculus [6] = test: Hepatoprotective activity in CDAHFD induced C57BL/6N mouse liver injury model assessed as decrease in triglyceride level at 200 mg/kg,po qd administration for 4 weeks; type: functional, organism-based
[7] = Metabolic stability in Sprague-Dawley rat liver microsomes assessed as compound remaining at 1 micromol/L measured upto 60 mins in presence of NADPH by LC-MS/MS analysis; type: ADME, Microsome; details: dose 1 µmol/L, read-out: Stability
Rattus norvegicus [8] = test: Antifibrotic activity in bile duct ligation induced Sprague-Dawley rat liver fibrosis model assessed as downregulation of TIMP1 mRNA expression at 200 mg/kg,po qd administration for 14 days by qRT-PCR analysis; type: functional, organism-based; details: time 14.0 day
Mus musculus [9] = test: Hepatoprotective activity in CDAHFD induced C57BL/6N mouse liver injury model assessed as decrease in LDH level at 200 mg/kg,po qd administration for 4 weeks; type: functional, organism-based
Mus musculus [10] = test: Hepatoprotective activity in CDAHFD induced C57BL/6N mouse liver injury model assessed as increase in glucose level at 200 mg/kg,po qd administration for 4 weeks; type: functional, organism-based
Mus musculus [11] = test: Hepatoprotective activity in CDAHFD induced C57BL/6N mouse liver injury model assessed as decrease in LDL level at 200 mg/kg,po qd administration for 4 weeks; type: functional, organism-based
Mus musculus [12] = test: Antifibrotic activity in CDAHFD induced non-alcoholic steatohepatitis C57BL/6N mouse model assessed as downregulation of COL1A1 protein expression at 200 mg/kg,po qd administration for 4 weeks by Western blotting analysis; type: functional, organism-based
LX-2 [13] = test: Antifibrotic activity in TGF-beta1 induced human LX2 cells assessed as downregulation of TGF-beta1 mRNA expression incubated for 24 hrs by qRT-PCR analysis; type: functional, cell-based
[14] = Metabolic stability in CD-1 mouse liver microsomes assessed as compound remaining at 1 micromol/L measured upto 60 mins in presence of NADPH by LC-MS/MS analysis; type: ADME, Microsome; details: 1 h, 1 µM, dose 1 µmol/L
Mus musculus [15] = test: Hepatoprotective activity in CDAHFD induced C57BL/6N mouse liver injury model assessed as increase in HDL level at 200 mg/kg,po qd administration for 4 weeks; type: functional, organism-based
Mus musculus [16] = test: Antifibrotic activity in CDAHFD induced non-alcoholic steatohepatitis C57BL/6N mouse model assessed as downregulation of TGF-beta1 protein expression at 200 mg/kg,po qd administration for 4 weeks by Western blotting analysis; type: functional, organism-based
LX-2 [17] = test: Antifibrotic activity in TGF-beta1 induced human LX2 cells assessed as downregulation of TGF-beta1 protein expression incubated for 24 hrs by western blotting analysis; type: functional, cell-based
Mus musculus [18] = test: Hepatoprotective activity in CDAHFD induced C57BL/6N mouse liver injury model assessed as reduction in fatty droplets at 200 mg/kg,po qd administration for 4 weeks by Oil red-O staining based microscopic analysis; type: functional, organism-based
[19] = Metabolic stability in CD-1 mouse liver microsomes assessed as microsomal intrinsic clearance at 1 micromol/L measured upto 60 mins in presence of NADPH by LC-MS/MS analysis; type: ADME, Microsome; details: dose 1 µmol/L, read-out: CLH
Mus musculus [20] = test: Hepatoprotective activity in CDAHFD induced C57BL/6N mouse liver injury model assessed as decrease in AST level at 200 mg/kg,po qd administration for 4 weeks; type: functional, organism-based
Mus musculus [21] = test: Hepatoprotective activity in CDAHFD induced C57BL/6N mouse liver injury model assessed as inhibition of lipid peroxidation at 200 mg/kg,po qd administration for 4 weeks; type: functional, organism-based
Mus musculus [22] = test: Antifibrotic activity in CDAHFD induced non-alcoholic steatohepatitis C57BL/6N mouse model assessed as downregulation of TIMP1 mRNA expression at 200 mg/kg,po qd administration for 4 weeks by qRT-PCR analysis; type: functional, organism-based
Mus musculus [23] = test: Antifibrotic activity in CDAHFD induced non-alcoholic steatohepatitis C57BL/6N mouse model assessed as decrease in collagen area at 200 mg/kg,po qd administration for 4 weeks by Masson's trichrome staining based analysis; type: functional, organism-based
Mus musculus [24] = test: Hepatoprotective activity in CDAHFD induced C57BL/6N mouse liver injury model assessed as decrease in ALT level at 200 mg/kg,po qd administration for 4 weeks; type: functional, organism-based
Mus musculus [25] = test: Hepatoprotective activity in CDAHFD induced C57BL/6N mouse liver injury model assessed as decrease in total cholesterol level at 200 mg/kg,po qd administration for 4 weeks; type: functional, organism-based
Rattus norvegicus [26] = test: Antifibrotic activity in bile duct ligation induced Sprague-Dawley rat liver fibrosis model assessed as upregulation of FXR protein expression at 200 mg/kg,po qd administration for 14 days by Western blotting analysis; type: functional, organism-based; details: time 14.0 day
[27] = Metabolic stability in CD-1 mouse liver microsomes assessed as intrinsic clearance at 1 micromol/L measured upto 60 mins in presence of NADPH by LC-MS/MS analysis; type: ADME, Microsome; details: 1 h, 1 µM, dose 1 µmol/L
[28] = Metabolic stability in human liver microsomes assessed as compound remaining at 1 micromol/L measured upto 60 mins in presence of NADPH by LC-MS/MS analysis; type: ADME, Microsome; details: dose 1 µmol/L, read-out: Stability
Rattus norvegicus [29] = test: Antifibrotic activity in bile duct ligation induced Sprague-Dawley rat liver fibrosis model assessed as downregulation of TGF-beta1 mRNA expression at 200 mg/kg,po qd administration for 14 days by qRT-PCR analysis; type: functional, organism-based; details: time 14.0 day
Rattus norvegicus [30] = test: Hepatoprotective activity in bile duct ligation induced Sprague-Dawley rat liver injury model assessed as decrease in ALP level at 200 mg/kg,po qd administration for 14 days; type: functional, organism-based; details: time 14.0 day
Rattus norvegicus [31] = test: Antifibrotic activity in bile duct ligation induced Sprague-Dawley rat liver fibrosis model assessed as downregulation of NTCP protein expression at 200 mg/kg,po qd administration for 14 days by Western blotting analysis; type: functional, organism-based; details: time 14.0 day
[32] = Half life in CD-1 mouse liver microsomes at 1 micromol/L measured upto 60 mins in presence of NADPH by LC-MS/MS analysis; type: ADME, Microsome; details: 1 h, 1 µM, dose 1 µmol/L
Mus musculus [33] = test: Anti-inflammatory activity in CDAHFD induced C57BL/6N mouse liver injury model assessed as downregulation of MCP1 mRNA expression in liver at 200 mg/kg,po qd administration for 4 weeks by qRT-PCR analysis; type: functional, organism-based

COc1cc2c(cc1OC)-c1cc3ccc(OC)c(OCc4cccc(C)c4)c3c[n+]1CC2.[Br-]
active: Activity (LX-2 [2]) Dose-Dependent Effect | Activity (Mus musculus [3]) | Activity (LX-2 [4]) Dose-Dependent Effect | Activity (Mus musculus [5]) | Activity (Rattus norvegicus [8]) | Activity (Mus musculus [9]) | Activity (Mus musculus [10]) | Activity (Mus musculus [11]) | Activity (Mus musculus [12]) | Activity (LX-2 [13]) Dose-Dependent Effect | Activity (Mus musculus [15]) | Activity (Mus musculus [16]) | Activity (LX-2 [17]) Dose-Dependent Effect | Activity (Mus musculus [18]) | Activity (Mus musculus [20]) | Activity (Mus musculus [21]) | Activity (Mus musculus [22]) | Activity (Mus musculus [23]) | Activity (Mus musculus [24]) | Activity (Rattus norvegicus [26]) | Activity (Rattus norvegicus [29]) | Activity (Rattus norvegicus [30]) | Activity (Rattus norvegicus [31]) | Activity (Mus musculus [33])
744 mL/min/kg: CLint,scaled [27]
44.1%: remaining at 1 h, 1 µM [28]
39%: Stability [14]
0.4%: remaining at 1 h, 1 µM [7]
188 µL/min/mg: microsomal CLint at 1 µM [19]
inactive: Activity (Mus musculus [6]) | Activity (Mus musculus [25])
338 mL/min/kg: CLint,scaled [1]
7.4 min: t1/2 [32]
